From PMC4837544, “Differential kinetic profiles and metabolism of primaquine enantiomers by human hepatocytes” (Malaria Journal, 2016)
Where two headings read alike, the source gives them in different places. Values belong to the compound of their own block, whether it stands above or below them.

Key:
[1] = system: primary human hepatocytes; assay type: in vitro ADME; conditions: for enantiomer from which the metabolite is generated: 20 µM (+)-, (−)- and (±)-PQ; for amount detected: peak areas too minute to profile
Description: (§1) A separate control incubation of PQ and the two enantiomers in the cell-free hepatocyte media was performed to detect any non-enzymatically generated product. Metabolic reactions were halted by the addition of two volumes of ice-cold methanol containing 0.5 µg/mL 6-d3-methoxyprimaquine as an internal standard at predetermined time intervals. This mixture was vortexed and kept at −20 °C for at least 4 h before further analysis. Parallel incubation of substrate-free hepatocytes was performed. At each time point, aliquots were taken for cell viability measurement.
(§2) In preparation for HPLC–MS analysis, samples were centrifuged (10,000g, 10 min) and clear supernatants were dried using a Speedvac. The dried samples were re-suspended in 150 µL methanol, centrifuged and clear supernatants were transferred to HPLC sample vials for analysis.
(§3) The analytical method for simultaneous analysis of primaquine and its metabolites using the Ultra-High Performance Liquid Chromatography-Mass Spectrometry (UHPLC-QToF-MS), as earlier developed and reported was employed in this study. […] Details of the chromatography set-up are published.
Metabolites in the accurate mass data were found using the Metabolynx® software. The data were searched using predicted metabolite mass, mass defects, isotope, and fragmentation patterns. Each sample was subjected to data acquisition in full scan and data-dependent positive MS/MS, targeted MS/MS (ESI positive ionization mode) and high-resolution MS (HRMS) modes using the Waters ACQUITY™ XEVO QTOF Mass Spectrometer (Waters Corporation, Manchester, UK) connected to the UHPLC system via an electrospray ionization (ESI) interface. Metabolites were distinguished from artifacts and unrelated products by the presence of twin peaks with a mass difference of six, arising from the six labels in the 1:1 mixture of 12-C and 13-C-labelled PQ. The Identification of each metabolite was assisted by its HRMS data, which were used to calculate their elemental compositions. The full scan mass data were screened and filtered using Waters MetaboLynx XS software. The qualitative metabolite identification was performed using this software package.

[2] = Substrate depletion / intrinsic clearance of PQ and its enantiomers in cryopreserved human hepatocytes; conditions: both, human; for half-life at 20 µM: hepatocytes, t½ (initial half-life), human hepatocytes
Text: (§4) Pooled mixed-gender cryopreserved metabolism-qualified (CYP1A2, 2B6, 2C8, 2C9, 2C19, 2D6, 3A4, UGT2B7, UDP-glucuronosyltransferase) primary human hepatocytes (catalog number 454504) sourced from free donors (who were free of HIV, HBV, HCV and other liver-related diseases) were purchased from Corning Life Sciences (Woburn MA, USA) and stored in liquid nitrogen until use.
(§5) The cryopreserved hepatocytes were thawed and the cells were suspended in recovery medium (Corning Life Sciences). According to the supplier’s instructions, the suspended cells were centrifuged (300g, 5 min), the recovery medium discarded and the cells were re-suspended in the plating medium. Viability of the suspended hepatocytes was computationally determined based on cell counts using a Bio-Rad automated cell counter (Hercules, CA, USA). The cell density was adjusted to approximately 1X10^6 viable cells/mL in the plating media.
as §1, with “PQ, racemic and enantiomers, prepared as a 1:1 mixture of 12-C and 13-C-labelled compounds, were separately incubated at a final concentration of 20 µM in the cell-containing plating media using the 48-well plate at 37 °C under a humidified atmosphere of 95 % air and 5 % CO2 in an Eppendorf incubator (Hauppauge, NY, USA) attached with a shaker set at 75 rpm. A separate” for “A separate”
as §2, §3
(§6) Initial half-life (t^1/2) and elimination rate constants (λ = ln2/t^1/2) of PQ in hepatocyte incubates were calculated by log-linear regression of PQ concentrations profiled against time using data from the sampling points of the 20 µM PQ incubates. The intrinsic clearance in vitro (CLint in vitro) was calculated from λ and the cell density in the respective incubation (number of viable hepatocytes per mL at time zero) and scaled up to the intrinsic clearance in vivo (CLint in vivo) using the human liver mass (25.7 g/kg body mass) and the hepatocellularity (number of hepatocytes per gram of liver = 99 millions cells/g liver): CLint in vitro = λ/cell density. CLint in vivo = CLint in vitro × liver mass × heptocellularity. From CLint in vivo and the hepatic blood flow [Q (20.7 mL/min)/kg body mass], the hepatic metabolic blood clearance (CLh,b) was predicted using the well-stirred model: CLh,b = (CLint in vivo × Q)/(CLint in vivo + Q).
(§7) Since this estimation was for comparisons between enantiomers only, no corrections were made for the free fractions in vitro or in vivo—i.e. they were assumed to be identical.

[3] = system: primary human hepatocytes; experiment: as above; conditions: for substrate depleted: by 2 h; for substrate depleted / λ elimination rate constant / t½ (initial half-life): 20 µM; for substrate depleted / λ elimination rate constant: human hepatocytes 1 million cells/mL; for CLh,b (% hepatic blood flow): human Qh 20.7 mL/min/kg; for λ elimination rate constant: log-linear regression 0–60 min
Text: as §4, §5
as §1, with “PQ, racemic and enantiomers, prepared as a 1:1 mixture of 12-C and 13-C-labelled compounds, were separately incubated at a final concentration of 20 µM in the cell-containing plating media using the 48-well plate at 37 °C under a humidified atmosphere of 95 % air and 5 % CO2 in an Eppendorf incubator (Hauppauge, NY, USA) attached with a shaker set at 75 rpm. A separate” for “A separate”
as §2, §3, §6, §7

[4] = system: primary human hepatocytes; experiment: Hepatocyte viability time course by cell counts in presence and absence of PQ; assay type: cell-based
Description: Parallel incubation of substrate-free hepatocytes was performed.

[5] = set-up: method as in PMID 25637634; conditions: cited from earlier work
[6] = set-up: method as in PMID 25645856; conditions: mice, therapeutic doses ref 22; cited from earlier work
[7] = system: recombinant human CYP2D6; set-up: method as in PMID 25518709; conditions: cited from earlier work; for depletion of PQ enantiomers: 2 h incubation with recombinant human CYP2D6 ref 12
[8] = set-up: method as in PMID 24913163, PMID 25267666; conditions: monkeys, higher than therapeutic doses ref 8, 9; cited from earlier work
[9] = system: malaria; set-up: method as in PMID 24913163; conditions: suppressive and prophylactic assays, mice ref 8; cited from earlier work
[10] = system: Pneumocystis carinii; set-up: method as in PMID 24913163; conditions: mice ref 8; cited from earlier work
[11] = set-up: method as in PMID 24913163, PMID 25267666; conditions: beagle dogs and mouse models ref 8, 9; cited from earlier work
[12] = set-up: method as in PMID 24913163, PMID 25267666; conditions: beagle dogs, humanized mouse model and monkeys ref 8, 9; cited from earlier work
[13] = set-up: method as in PMID 25267666, PMID 25637634, PMID 23378100; conditions: after racemic PQ in mice, monkeys and humans ref 9, 15, 16; cited from earlier work
[14] = Control incubation in cell-free hepatocyte media (non-enzymatic products); assay type: in vitro ADME
Description: as §1, with “PQ, racemic and enantiomers, prepared as a 1:1 mixture of 12-C and 13-C-labelled compounds, were separately incubated at a final concentration of 20 µM in the cell-containing plating media using the 48-well plate at 37 °C under a humidified atmosphere of 95 % air and 5 % CO2 in an Eppendorf incubator (Hauppauge, NY, USA) attached with a shaker set at 75 rpm. A separate” for “A separate”

[15] = human hepatocytes, computed from λ
[16] = human hepatocytes, computed from λ (ln2/λ)

- enantiomer from which the metabolite is generated [1]: preferentially generated from the (−)-PQ
SMILES: COc1cc(N2C(=O)CCC2C)c2ncccc2c1 (stereo not drawn)

- enantiomer from which the metabolite is generated [1]: preferentially generated from the (−)-PQ
SMILES: COc1cc(NC(C)CCC(=O)OC2OC(C(=O)O)C(O)C(O)C2O)c2ncccc2c1 [CPQ glucuronide, Carboxyprimaquine-β-D-glucuronide]

- enantiomer from which the metabolite is generated [1]: preferentially generated from the (−)-PQ
- portion of metabolite generated within 30 min ([1]; 2 h incubation): 75%
SMILES: COc1cc(NC(C)CCC(=O)O)c2ncccc2c1 (stereo not drawn) [CPQ, carboxyprimaquine]
- CPQ peak plasma concentration from (−)-PQ relative to from (+)-PQ ([5]; human, after racemic primaquine ref 15): 15 times
- enantiomeric form in plasma [13]: predominantly the (−)-form

- enantiomer from which the metabolite is generated [1]: preferentially generated by (+)-PQ
- enantiomer from which the metabolite is generated ([1]; listed as PQ conjugate formed by apparent N-glucosylation): preferentially formed with (+)-PQ
- enantiomer from which the metabolite is generated ([1]; listed as glycosylated PQ): preferentially generated from (+)-PQ
- time of peak formation ([1]; biphasic increase): ≤ 30 min
- formation in cell-free media [14]: formed non-enzymatically
SMILES: COc1cc(NC(C)CCCNC2OC(CO)C(O)C(O)C2O)c2ncccc2c1 (stereo not drawn) [glycosylated conjugate of PQ]

More lines, now with the values behind:

SMILES: COc1cc([N+]2=CCCC2C)c2ncccc2c1 (stereo not drawn)
- enantiomer from which the metabolite is generated [1]: preferentially generated from the (−)-PQ

SMILES: COc1cc(NC(C)CCCN)c2ncccc2c1 (racemic) [(±)-PQ, primaquine]
- Km [2]: 37 µM
- k el at 20 µM [2]: 9.44e-05 s⁻¹
- half-life at 20 µM ([2]; computed from λ): 2.03 h
- half-life at 20 µM ([2]; computed from λ (ln2/λ)): 2.03 h
- substrate depleted [3]: 30%
- CLh,b (% hepatic blood flow) [3]: 36 % hepatic blood flow
- direct hepatocellular toxicity (viable cell counts vs drug-free incubation) ([4]; 20 µM, up to 2 h): absence of PQ-induced direct hepatocellular toxicity
- hepatocyte viability ([4]; at the 2 h termination time, drug-free and PQ-containing incubates similar): 88 % of the starting value
- expected peak plasma concentrations ([5]; humans ref 15): < 2 µM
- liver concentration relative to plasma [6]: about 20 times

SMILES: COc1cc(NC(C)CCCN)c2ncccc2c1 (single isomer, unassigned; (-)) [(−)-PQ, (−)-primaquine]
- λ elimination rate constant [3]: 0.64 h⁻¹
- t½ (initial half-life) [3, 15]: 1.08 h
- t½ (initial half-life) [3, 16]: 1.09 h
- substrate depleted [3]: 42%
- CLh,b (% hepatic blood flow) [3]: 51 % hepatic blood flow
- in vitro clearance compared with (+)-PQ ([3]; human hepatocytes): three times faster
- depletion of PQ enantiomers [7]: 30%
- liver damage [8]: reversible liver damage

SMILES: COc1cc(NC(C)CCCN)c2nc(O)ccc2c1 (stereo not drawn) [2-hydroxyprimaquine]
- enantiomer from which the metabolite is generated [1]: exclusively generated from the (+)-PQ
- amount detected [1]: trace amounts

SMILES: COc1cc(NC(C)CCCN)c2nccc(O)c2c1 (stereo not drawn) [4-hydroxyprimaquine]
- enantiomer from which the metabolite is generated [1]: exclusively generated from the (+)-PQ
- amount detected [1]: trace amounts

SMILES: COc1cc(N[C@@H](C)CCCN)c2ncccc2c1 [(+)-PQ, (+)-(S)-primaquine]
- λ elimination rate constant [3]: 0.19 h⁻¹
- t½ (initial half-life) [3, 15]: 3.62 h
- t½ (initial half-life) [3, 16]: 3.62 h
- substrate depleted [3]: 16%
- rate of hepatic clearance of (+)-PQ relative to that of (−)-PQ ([3]; extrapolated in vivo human hepatic blood clearance, well-stirred liver model): 45%
- CLh,b (% hepatic blood flow) [3]: 24 % hepatic blood flow
- initial half-life compared with (−)-PQ ([3]; human hepatocytes): more than three times longer
- depletion of PQ enantiomers [7]: 50%
- rate of metabolism compared to (−)-PQ ([7]; in vitro with recombinant human CYP2D6 ref 12): significantly higher
- anti-malarial activity compared with (−)-PQ [9]: more active than (−)-PQ
- Pneumocystis carinii pneumonia efficacy compared with (−)-PQ [10]: more active than (−)-PQ
- acute toxicity [11]: higher acute toxicity than (−)-PQ
- methaemoglobinemia [12]: higher methaemoglobinemia than (−)-PQ

SMILES: COc1cc(NC(C)CCCNC(=O)OC2OC(C(=O)O)C(O)C(O)C2O)c2ncccc2c1 [N-carbamoyl glucuronide of PQ, (S)-primaquine-N-carbamoyl-β-D-glucuronide]
- enantiomer from which the metabolite is generated [1]: exclusively formed from (+)-PQ
- enantiomer from which the metabolite is generated ([1]; listed as carbamoyl glucuronide of PQ): exclusively generated from (+)-PQ

SMILES: COc1cc(NC(C)CCCO)c2ncccc2c1 (stereo not drawn) [PQ terminal alcohol, primaquine alcohol]
- enantiomer from which the metabolite is generated [1]: preferentially generated from the (−)-PQ

SMILES: COc1cc(NC(C)CCCOC2OC(C(=O)O)C(O)C(O)C2O)c2ncccc2c1 [glucuronide of PQ alcohol, Primaquine alcohol-O-β-D-glucuronide]
- enantiomer from which the metabolite is generated [1]: preferentially generated from the (−)-PQ
